Data taken from ChEMBL document CHEMBL1146378, “Synthesis and cytotoxicity of novel fatty acid-nucleoside conjugates” (2007).
The source made the active and inactive calls. No cut-off for these calls is given here.

Key:
Type in all cases: functional
[1] = (§1) Cytotoxicity against human Ec9706 cells at 50 uM after 48 hrs by MTT assay; settings: EC9706, 48 h
[2] = tested on: A549; test: Cytotoxicity against human A549 cells at 400 uM after 48 hrs by MTT assay; settings: for inhibition at 400 µM: A549, 48 h
[3] = (§2) Cytotoxicity against human Ec9706 cells at 100 uM after 48 hrs by MTT assay; settings: EC9706, 48 h
[4] = tested on: A549; test: Cytotoxicity against human A549 cells at 200 uM after 48 hrs by MTT assay; settings: for inhibition at 200 µM: A549, 48 h
[5] = (§3) Cytotoxicity against human Ec9706 cells at 200 uM after 48 hrs by MTT assay; settings: EC9706, 48 h
[6] = tested on: A549; test: Cytotoxicity against human A549 cells at 100 uM after 48 hrs by MTT assay; settings: for inhibition at 100 µM: A549, 48 h
[7] = tested on: A549; test: Cytotoxicity against human A549 cells at 50 uM after 48 hrs by MTT assay; settings: for inhibition at 50 µM: A549, 48 h
[8] = (§4) Cytotoxicity against human Ec9706 cells at 400 uM after 48 hrs by MTT assay; settings: EC9706, 48 h
[9] = tested on: EC9706; test: as §2
[10] = tested on: EC9706; test: as §3
[11] = tested on: EC9706; test: as §4
[12] = tested on: EC9706; test: as §1

Compound	inhibition at 50 µM [1] [%]	inhibition at 400 µM [2] [%]	inhibition at 100 µM [3] [%]	inhibition at 200 µM [4] [%]	inhibition at 200 µM [5] [%]	inhibition at 100 µM [6] [%]	inhibition at 50 µM [7] [%]	inhibition at 400 µM [8] [%]	Activity [2]	Activity [9]	Activity [4]	Activity [10]	Activity [6]	Activity [11]	Activity [12]	Activity [7]
CCCCC/C=C\C/C=C\C/C=C\C/C=C\CCCC(=O)OCCn1c(=O)c(F)cn([C@H]2CCCO2)c1=O	19.3	92.1	30.8	78.2	59.9	33.8	1.6	69.9								
CCCCCCCC/C=C\CCCCCCCC(=O)OCCn1c(=O)c(F)cn([C@H]2CCCO2)c1=O	3.7		4.9			4.8	2.5									
O=c1c(F)cn([C@H]2CCCO2)c(=O)n1CCO									inactive	inactive	inactive	inactive	inactive	inactive		
CCCCC/C=C\C/C=C\CCCCCCCC(=O)OCCn1c(=O)c(F)cn([C@H]2CCCO2)c1=O		90.7	14.4	24.7	31.9	11	1.8	54.4							inactive	
O=c1[nH]c(=O)n(C2CCCO2)cc1F (stereo not given) [TEGAFUR]		17.8		15.2	7.8	12.7		17.4		inactive						
CCCCCCCCCCCCCCCCCC(=O)OCCn1c(=O)c(F)cn([C@H]2CCCO2)c1=O										inactive			inactive		inactive	inactive
CCCCCCCCCCCC(=O)OCCn1c(=O)c(F)cn([C@H]2CCCO2)c1=O										inactive			inactive		inactive	inactive
